Results on nine compounds are retold here after patent publication US20240270744A1 (Hoffmann-La Roche Inc., priority 2021, published 2024).

Where two headings read alike, the source gives them in different places.

The target in test [1] is human GABAA α1β2γ1 receptor (Homo sapiens (Human), UniProt P14867+Q8N1C3). In words: Radioligand binding assay, competition for [3H]RO7239181, γ1-containing GABAA subtypes. On the procedure:
(§1) The affinity of compounds at GABAA γ1 subunit-containing receptors was measured by competition for [^3H]RO7239181 (67.3 Ci/mmol; Roche) binding to membranes from HEK293F cells (ThermoFisher R79007) expressing human (transiently transfected) receptors of composition α5β2γ1, α2β2γ1, α1β2γ1.
(§2) Harvested pellets from HEK293F cells expressing the different GABAA receptor subtypes were resuspended in Mannitol Buffer pH 7.2-7.4 (Mannitol 0.29 M, Triethylamine 10 mM, Acetic acid 10 mM, EDTA 1 mM plus protease inhibitors (20 tablets Complete, Roche Diagnostics Cat. No. 05 056 489 001 per liter)), washed two times and then resuspended at 1:10 to 1:15 dilution in the same buffer. Cell disruption was performed by stirring the suspension in a Parr vessel #4637 at 435 psi for 15 minutes, and then the suspensions were centrifuged at 1000×g for 15 minutes at 4° C. (Beckman Avanti J-HC: rotor JS-4.2). The supernatant (S1) was transferred in a 21 Schott flask and the pellet (P1) was resuspended with Mannitol Buffer up to 175 ml. The resuspended pellet was transferred into a 250 ml Corning centrifugal beaker and centrifuged at 1500×g for 10 minutes at 4° C. (Beckman Avanti J-HC: rotor JS-4.2). The supernatant (S1) was then transferred in the 21 Schott flask and the pellet was discarded. The supernatants (S1) were centrifuged in 500 ml Beckman polypropylene centrifugal beaker at 15′000×g for 30 minutes at 4° C. (Beckman Avanti J-20 XP; rotor JLA-10.500). The pellet (P2) was resuspended with Mannitol Buffer 1:1 and frozen at −80° C. The supernatant (S2) was centrifuged in 100 ml Beckman polypropylene centrifugal tubes at 48000×g for 50 minutes at 4° C. (Beckman Avanti J-20 XP; rotor JA-18). The supernatant (S3) was discarded and the pellet (P3) was resuspended with 1:1 Mannitol Buffer. The P2 and P3 protein concentration was determined with the BIORAD Standard assay method with bovine serum albumin as standard and measured on the NANO-Drop 1000. The membrane suspension was aliquots (500 μl per tube) and stored at −80° C. until required.
(§3) Membrane homogenates were resuspended and polytronised (Polytron PT1200E Kinematica AG) in Potassium Phosphate 10 mM, KCl 100 mM binding buffer at pH 7.4 to a final assay concentration determined with a previous experiment.
(§4) Assays were incubated to equilibrium for 1 hour at 4° C. and then, membranes were filtered onto unifilter (96-well white microplate with bonded GF/C filters preincubated 20-50 minutes in 0.3% Polyethylenimine) with a Filtermate 196 harvester (Packard BioScience) and washed 4 times with cold Potassium Phosphate 10 mM pH 7.4, KCl 100 mM binding buffer. After anhydrousing, filter-retained radioactivity was detected by liquid scintillation counting. Ki values were calculated using Excel-Fit (Microsoft) and are the means of two determinations.

In test [2] the target is human GABAA α2β2γ1 receptor (Homo sapiens (Human), UniProt P47869+Q8N1C3). Described as above. To be noted: for LogSel: Log of the γ2/γ1 Ki ratio. On the procedure: as §1, §2, §3, §4
In test [3] the target is human GABAA α1β3γ2 receptor (Homo sapiens (Human), UniProt P14867+P18507). Briefly: Radioligand binding assay, competition for [3H]Flumazenil, γ2-containing GABAA subtypes. To be noted: read-out: Ki h-GABAA α1β3γ2. The procedure: The affinity of compounds at GABAA γ2 subunit-containing receptors was measured by competition for [^3H]Flumazenil (81.1 Ci/mmol; Roche) binding to HEK293F cells expressing human (transiently transfected) receptors of composition α1β3γ2.
Harvested pellets from HEK293F cells expressing the different GABAA γ2 receptor subtypes were resuspended in Mannitol Buffer pH 7.2-7.4 and processed as described above for the cells expressing the GABAA γ1 subunit-containing receptors.
Assays were incubated to equilibrium for 1 hour at 4° C. and harvested onto GF/C uni-filters (Packard) by filtration using a Packard harvester and washing with ice-cold wash buffer (50 mM Tris; pH 7.5). After anhydrousing, filter-retained radioactivity was detected by liquid scintillation counting. Ki values were calculated using Excel-Fit (Microsoft) and are the means of two determinations.

The mark [4] stands for this setting: Table 1, [3H]RO7239181 displacement, membranes from HEK293F cells, mean of two determinations.
Where [5] appears, read: Ki h-GABAA α2β2γ1, Table 1, [3H]RO7239181 displacement, membranes from HEK293F cells, mean of two determinations.
Setting [6] is: Ki h-GABAA α2β2γ1, Table 2, [3H]RO7239181 displacement.
The mark [7] stands for this setting: Table 1, Ki α1β3γ2 (nM)/Ki α2β2γ1 (nM).
The mark [8] stands for this setting: Table 1, [3H]Flumazenil displacement, HEK293F cells, mean of two determinations.
Where [9] appears, read: Table 3, reference compounds comparison.

For `C[C@@H]1N=C(c2c(F)cccc2F)c2c(cnc(C(F)(F)F)c2Cl)-n2nc(C(=O)N3CC(O)C3)nc21` [Example 8, [(7S)-11-chloro-9-(2,6-difluorophenyl)-7-methyl-12-(trifluoromethyl)-2,3,5,8,13-pentazatricyclo[8.4.0.02,6]tetradeca-1(10),3,5,8,11,13-hexaen-4-yl]-(3-hydroxyazetidin-1-yl)methanone], the Ki in test [1] (setting [4]) was determined as 48.8 nM; in test [2] (setting [5]), 14.6 nM; in test [2] (setting [6]) it was 14.6 nM; in test [3] (setting [8]), 3720 nM. The “γ2/γ1 Selectivity Ratio” value in test [2] (setting [7]) amounted to 255. In test [2] (Table 1), the LogSel is 2.41.
On to `COC1CN(C(=O)c2nc3n(n2)-c2cnc(C(F)(F)F)c(Cl)c2C(c2c(F)cccc2F)=N[C@H]3C)C1` [Example 9, [(7S)-11-chloro-9-(2,6-difluorophenyl)-7-methyl-12-(trifluoromethyl)-2,3,5,8,13-pentazatricyclo[8.4.0.02,6]tetradeca-1(10),3,5,8,11,13-hexaen-4-yl]-(3-methoxyazetidin-1-yl)methanone], for which the Ki in test [1] (setting [4]) came to 45.8 nM; in test [2] (setting [5]), 19.9 nM; in test [2] (setting [6]), 19.9 nM; in test [3] (setting [8]), 3390 nM. In addition, the “γ2/γ1 Selectivity Ratio” value in test [2] (setting [7]) was 170. Moreover, in test [2] (Table 1), the LogSel amounted to 2.23.
For the compound `C[C@@H]1N=C(c2c(F)cccc2F)c2c(cnc(C(F)(F)F)c2Cl)-n2nc(C(=O)N3CC(C)(O)C3)nc21` [Example 10, [(7S)-11-chloro-9-(2,6-difluorophenyl)-7-methyl-12-(trifluoromethyl)-2,3,5,8,13-pentazatricyclo[8.4.0.02,6]tetradeca-1(10),3,5,8,11,13-hexaen-4-yl]-(3-hydroxy-3-methyl-azetidin-1-yl)methanone], the Ki in test [1] (setting [4]) was 80.5 nM; in test [1] (setting [9]), 80.5 nM; in test [2] (setting [5]), 14.3 nM; in test [2] (setting [6]), 14.3 nM; in test [2] (Ki h-GABAA α2β2γ1, Table 3, reference compounds comparison) it was 14.3 nM; in test [3] (setting [8]) it was 4610 nM. In test [3] (setting [9]), the inhibitory constant (Ki) amounted to 4610 nM. Also, the “γ2/γ1 Selectivity Ratio” value in test [2] (setting [7]) is on record as 321; in test [2] (Table 3, Ki α1β3γ2/Ki α2β2γ1), 321. Moreover, the LogSel in test [2] (Table 1) came out at 2.51; in test [2] (Table 3) it was 2.5.
As for `C[C@@H]1N=C(c2c(F)cccc2F)c2c(cnc(C(F)(F)F)c2Cl)-n2nc(C(=O)N3CCS(=O)(=O)CC3)nc21` [Example 11, [(7S)-11-chloro-9-(2,6-difluorophenyl)-7-methyl-12-(trifluoromethyl)-2,3,5,8,13-pentazatricyclo[8.4.0.02,6]tetradeca-1(10),3,5,8,11,13-hexaen-4-yl]-(1,1-dioxo-1,4-thiazinan-4-yl)methanone], the inhibitory constant (Ki) in test [1] (setting [4]) is 45.8 nM; in test [2] (setting [5]) it was 9.6 nM; in test [2] (setting [6]), 9.6 nM; in test [3] (setting [8]), 7890 nM. For the same compound, in test [2] (setting [7]), the “γ2/γ1 Selectivity Ratio” value was 818. Further, the LogSel in test [2] (Table 1) was determined as 2.91.
For `C[C@H](O)CNC(=O)c1nc2n(n1)-c1cnc(C(F)(F)F)c(Cl)c1C(c1c(F)cccc1F)=N[C@H]2C` [Example 14, (7S)-11-chloro-9-(2,6-difluorophenyl)-N-[(2S)-2-hydroxypropyl]-7-methyl-12-(trifluoromethyl)-2,3,5,8,13-pentazatricyclo[8.4.0.02,6]tetradeca-1(10),3,5,8,11,13-hexaene-4-carboxamide], the inhibition constant Ki stood at 91.8 nM in test [1] (setting [4]), 46 nM in test [2] (setting [5]), 39.2 nM in test [2] (setting [6]) and 8760 nM in test [3] (setting [8]). Also, the “γ2/γ1 Selectivity Ratio” value in test [2] (setting [7]) turned out to be 190. Also, in test [2] (Table 1), the LogSel was 2.28.
With `C[C@@H]1N=C(c2c(F)cccc2F)c2c(cnc(C(F)(F)F)c2Cl)-n2nc(C(=O)NCCO)nc21` [Example 15, (7S)-11-chloro-9-(2,6-difluorophenyl)-N-(2-hydroxyethyl)-7-methyl-12-(trifluoromethyl)-2,3,5,8,13-pentazatricyclo[8.4.0.02,6]tetradeca-1(10),3,5,8,11,13-hexaene-4-carboxamide], the Ki in test [1] (setting [4]) is 114 nM; in test [2] (setting [5]) it was 34.5 nM; in test [2] (setting [6]), 36.5 nM; in test [3] (setting [8]), 9470 nM. In addition, the “γ2/γ1 Selectivity Ratio” value in test [2] (setting [7]) is reported as 275. In addition, the LogSel in test [2] (Table 1) is listed as 2.44.
On to `C[C@@H]1N=C(c2c(F)cccc2F)c2c(cnc(C(F)(F)F)c2Cl)-n2nc(C(=O)NC[C@@H](C)O)nc21` [Example 16, (7S)-11-chloro-9-(2,6-difluorophenyl)-N-[(2R)-2-hydroxypropyl]-7-methyl-12-(trifluoromethyl)-2,3,5,8,13-pentazatricyclo[8.4.0.02,6]tetradeca-1(10),3,5,8,11,13-hexaene-4-carboxamide], for which the inhibitory constant (Ki) came to 157 nM in test [1] (setting [4]), 39.8 nM in test [2] (setting [5]), 35.3 nM in test [2] (setting [6]) and 9470 nM in test [3] (setting [8]). Besides, the “γ2/γ1 Selectivity Ratio” value in test [2] (setting [7]) worked out at 238. In test [2] (Table 1), the LogSel is given as 2.38.
For the compound `Cc1nnc2n1-c1cnc(C(F)(F)F)c(Cl)c1C(c1c(F)cccc1Cl)=N[C@H]2C` [Example 17, (7S)-11-chloro-9-(2-chloro-6-fluoro-phenyl)-3,7-dimethyl-12-(trifluoromethyl)-2,4,5,8,13-pentazatricyclo[8.4.0.02,6]tetradeca-1(10),3,5,8,11,13-hexaene], the inhibition constant (Ki) is 34.4 nM in test [1] (setting [4]), 22.6 nM in test [2] (setting [5]), 21 nM in test [2] (setting [6]) and 4870 nM in test [3] (setting [8]). The “γ2/γ1 Selectivity Ratio” value in test [2] (setting [7]) was 215. The LogSel in test [2] (Table 1) came out at 2.33.
Consider `C[C@@H]1N=C(c2c(F)cccc2F)c2c(cnc(C(F)(F)F)c2Cl)-n2cc(C(=O)NCCO)nc21` [Example 19, (7S)-11-chloro-9-(2,6-difluorophenyl)-N-(2-hydroxyethyl)-7-methyl-12-(trifluoromethyl)-2,5,8,13-tetrazatricyclo[8.4.0.02,6]tetradeca-1(10),3,5,8,11,13-hexaene-4-carboxamide], for which the inhibition constant Ki in test [1] (setting [4]) was 48.9 nM; in test [2] (setting [5]), 21.2 nM; in test [2] (setting [6]), 23.2 nM; in test [3] (setting [8]), 5100 nM. For the same compound, the “γ2/γ1 Selectivity Ratio” value in test [2] (setting [7]) is 241. Moreover, the LogSel in test [2] (Table 1) was 2.38.

Broadly, the Ki is the dissociation constant of the complex between target and ligand, obtained from inhibition or displacement.
